According to patent US9067937B2 (priority 2012, dated 2015):
Where a name gives a salt, the structure may show the parent alone. Read-outs that look alike come from different tables or passages of the source.

How the values were obtained:
[1] = system: A549 cells; assay: Cell-based assay, anti-proliferative activity (Cell Counting Kit-8, 72 hours); set-up: species or system human; conditions: read-out: IC50 (μM) (A549)
Procedure: (§1) Active candidate inhibitors against MELK were evaluated for their target-specific cytotoxicity using 22Rv1, T47D, A549, DU4475 and HT-1197 cells was used for negative control. 100 micro-L of cell suspension was seeded onto 96-well microtiter plate (ViewPlate-96FTC, PerkinElmer). The initial cell concentration of 22Rv1, T47D, A549, DU4475, and HT1197 were 3,000 cells/well, 2,000 cells/well and 2,500 cells/well, respectively. Cellular growth was determined using Cell Counting Kit-8 (DOJINDO) at 72 hours after the exposure of the candidate inhibitors. […] Accurate IC50 values were calculated as described previously.

[2] = system: 22Rv1 cells; assay: as above; set-up: species or system human; conditions: read-out: IC50 (μM) (22Rvl)
Procedure: as §1

[3] = system: T47D cells; assay: as above; set-up: species or system human; conditions: read-out: IC50 (μM) (T47D)
Procedure: as §1

[4] = system: DU4475 cells; assay: as above; set-up: species or system human; conditions: read-out: IC50 (μM) (DU4475)
Procedure: as §1

[5] = system: HT1197 cells; assay: Cell-based assay, anti-proliferative activity, MELK-negative control (Cell Counting Kit-8, 72 hours); set-up: species or system human; conditions: read-out: IC50 (μM) (HTll97)
Procedure: as §1, with “100” for “Active candidate inhibitors against MELK were evaluated for their target-specific cytotoxicity using 22Rv1, T47D, A549, DU4475 and HT-1197 cells was used for negative control. 100”

[6] = molecular target: MELK (Homo sapiens, UniProt Q14680); assay: Kinase assay (IMAP fluorescence polarization, FITC-labeled histone H3 peptide); format: biochemical; conditions: 50 micro-M ATP
Procedure: MELK activity was determined in the presence or absence of compounds using fluorescein isothiocyanate-labeled (FITC-labeled) histone H3 peptide as a substrate. […] The serially diluted compounds, 0.8 ng/micro-L […] (Carna Biosciences) and 100 nM FITC-labeled histone H3 peptide were reacted in a reaction buffer (20 mM HEPES, 0.01% Tween-20, 0.3 mM MgCl2, 2 mM dithiothreitol, 50 micro-M ATP, pH 7.4) at room temperature for 1 hour. The reaction was stopped by the addition of three fold assay volume of progressive binding solution. […] IC50 values were calculated by nonlinear four parameter fit using SigmaPlot, version 10.0 (Systat Software, Inc.).

[7] = HT1197 cells (MELK-negative control), 72 hours

Sequence of MELK (Q14680 whole entry, looked up): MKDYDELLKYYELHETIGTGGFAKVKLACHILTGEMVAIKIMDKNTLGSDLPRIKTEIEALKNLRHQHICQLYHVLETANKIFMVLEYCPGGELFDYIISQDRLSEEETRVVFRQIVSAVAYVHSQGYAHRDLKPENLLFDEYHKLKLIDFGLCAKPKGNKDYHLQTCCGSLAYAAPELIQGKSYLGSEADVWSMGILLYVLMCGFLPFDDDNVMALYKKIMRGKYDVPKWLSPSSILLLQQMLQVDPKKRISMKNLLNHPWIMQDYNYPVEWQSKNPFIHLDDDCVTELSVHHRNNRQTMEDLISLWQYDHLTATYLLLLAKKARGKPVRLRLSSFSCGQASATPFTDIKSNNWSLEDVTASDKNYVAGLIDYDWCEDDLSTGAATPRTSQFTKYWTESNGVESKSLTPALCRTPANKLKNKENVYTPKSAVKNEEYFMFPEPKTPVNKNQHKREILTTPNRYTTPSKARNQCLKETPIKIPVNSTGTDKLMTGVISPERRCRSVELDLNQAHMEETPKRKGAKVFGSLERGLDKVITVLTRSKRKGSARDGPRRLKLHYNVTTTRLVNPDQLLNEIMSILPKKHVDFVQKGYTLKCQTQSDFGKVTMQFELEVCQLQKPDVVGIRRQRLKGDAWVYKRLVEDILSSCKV

## 1-[6-(3,5-Dichloro-4-hydroxyphenyl)-4-(trans-4-hydroxycyclohexylamino)-1,5-naphthyridin-3-yl]-ethanone hydrochloride [Example 91]
[1]; A549 cells, 72 hours
  IC50: 0.048 µM
[2]; 22Rv1 cells, 72 hours
  IC50: 0.072 µM
[3]; T47D cells, 72 hours
  IC50: 0.038 µM
[4]; DU4475 cells, 72 hours
  IC50: 0.016 µM
[5]; [7]
  IC50: 0.33 µM
[6]
  IC50: 0.015 µM

## 1-[6-(3-Chloro-5-fluoro-4-hydroxyphenyl)-4-(trans-4-hydroxycyclohexylamino)-1,5-naphthyridin-3-yl]ethanone hydrochloride [Example 92]
[1]; A549 cells, 72 hours
  IC50: 0.053 µM
[2]; 22Rv1 cells, 72 hours
  IC50: 0.061 µM
[3]; T47D cells, 72 hours
  IC50: 0.036 µM
[4]; DU4475 cells, 72 hours
  IC50: 0.018 µM
[5]; [7]
  IC50: 0.53 µM
[6]
  IC50: 0.012 µM

## CC(=O)c1cnc2ccc(Cl)nc2c1N[C@H]1CC[C@H](CN(C)C)CC1 [Example 1, 1-(6-Chloro-4-{trans-4-[(dimethylamino)methyl]cyclohexylamino}-1,5-naphthyridin-3-yl)-ethanone]
[1]; Homo sapiens, A549, 72 h
  IC50: 2.7 µM
[2]; Homo sapiens, 22Rv1, 72 h
  IC50: 5 µM
[3]; Homo sapiens, T47D, 72 h
  IC50: 5.3 µM
[4]; Homo sapiens, DU-4475, 72 h
  IC50: 2.5 µM
[5]; Homo sapiens, HT1197, 72 h
  IC50: 10 µM
[6]
  IC50: 0.31 µM

## CC(=O)c1cnc2ccc(-c3cc(Cl)c(O)c(Cl)c3)nc2c1N[C@H]1CC[C@H](N(C)C)CC1 [Example 2, 1-{6-(3,5-Dichloro-4-hydroxyphenyl)-4-[trans-4-(dimethylamino)cyclohexylamino]-1,5-naphthyridin-3-yl}ethanone dihydrochloride]
[1]; Homo sapiens, A549, 72 h
  IC50: 0.004 µM
[2]; Homo sapiens, 22Rv1, 72 h
  IC50: 0.0032 µM
[3]; Homo sapiens, T47D, 72 h
  IC50: 0.0018 µM
[4]; Homo sapiens, DU-4475, 72 h
  IC50: 0.0015 µM
[5]; Homo sapiens, HT1197, 72 h
  IC50: 0.19 µM
[6]
  IC50: 0.0003 µM

## CC(=O)c1cnc2ccc(-c3cc(F)c(O)c(Cl)c3)nc2c1N[C@H]1CC[C@H](N(C)C)CC1 [Example 3, 1-{6-(3-Chloro-5-fluoro-4-hydroxyphenyl)-4-[trans-4-(dimethylamino)cyclohexylamino]-1,5-naphthyridin-3-yl}ethanone dihydrochloride]
[1]; Homo sapiens, A549, 72 h
  IC50: 0.0091 µM
[2]; Homo sapiens, 22Rv1, 72 h
  IC50: 0.006 µM
[3]; Homo sapiens, T47D, 72 h
  IC50: 0.0026 µM
[4]; Homo sapiens, DU-4475, 72 h
  IC50: 0.0033 µM
[5]; Homo sapiens, HT1197, 72 h
  IC50: 0.39 µM
[6]
  IC50: 0.0012 µM

## CN(C)C[C@H]1CC[C@H](Nc2c(C(=O)C3CC3)cnc3ccc(-c4cc(Cl)c(O)c(Cl)c4)nc23)CC1 [Example 4, Cyclopropyl(6-(3,5-dichloro-4-hydroxyphenyl)-4-{trans-4-[(dimethylamino)methyl]-cyclohexylamino}-1,5-naphthyridin-3-yl)methanone dihydrochloride]
[1]; Homo sapiens, A549, 72 h
  IC50: 0.0062 µM
[2]; Homo sapiens, 22Rv1, 72 h
  IC50: 0.0064 µM
[3]; Homo sapiens, T47D, 72 h
  IC50: 0.0055 µM
[4]; Homo sapiens, DU-4475, 72 h
  IC50: 0.0026 µM
[5]; Homo sapiens, HT1197, 72 h
  IC50: 0.036 µM
[6]
  IC50: 0.0005 µM

## CN(C)C[C@H]1CC[C@H](Nc2c(C(=O)C3CC3)cnc3ccc(-c4cc(F)c(O)c(Cl)c4)nc23)CC1 [Example 5, (6-(3-Chloro-5-fluoro-4-hydroxyphenyl)-4-{trans-4-[(dimethylamino)methyl]cyclohexyl-amino}-1,5-naphthyridin-3-yl)(cyclopropyl)methanone dihydrochloride]
[1]; Homo sapiens, A549, 72 h
  IC50: 0.0061 µM
[2]; Homo sapiens, 22Rv1, 72 h
  IC50: 0.0057 µM
[3]; Homo sapiens, T47D, 72 h
  IC50: 0.0029 µM
[4]; Homo sapiens, DU-4475, 72 h
  IC50: 0.003 µM
[5]; Homo sapiens, HT1197, 72 h
  IC50: 0.018 µM
[6]
  IC50: 0.0008 µM

## CC(=O)c1cnc2ccc(-c3cc(F)c(O)c(Cl)c3)nc2c1N[C@H]1CC[C@H](CN(C)C)CC1 [Example 7, 1-{6-(3-Chloro-5-fluoro-4-hydroxyphenyl)-4-({trans-4-[(dimethylamino)methyl]cyclohexyl}-amino)-1,5-naphthyridin-3-yl}ethanone dihydrochloride]
[1]; Homo sapiens, A549, 72 h
  IC50: 0.0097 µM
[2]; Homo sapiens, 22Rv1, 72 h
  IC50: 0.0061 µM
[3]; Homo sapiens, T47D, 72 h
  IC50: 0.0035 µM
[4]; Homo sapiens, DU-4475, 72 h
  IC50: 0.0036 µM
[5]; Homo sapiens, HT1197, 72 h
  IC50: 0.11 µM
[6]
  IC50: 0.0013 µM

## COc1cc(-c2ccc3ncc(C(C)=O)c(N[C@H]4CC[C@H](CN(C)C)CC4)c3n2)cc(Cl)c1O [Example 8, 1-(6-(3-Chloro-4-hydroxy-5-methoxyphenyl)-4-{trans-4-[(dimethylamino)methyl]cyclohexyl-amino}-1,5-naphthyridin-3-yl)ethanone dihydrochloride]
[1]; Homo sapiens, A549, 72 h
  IC50: 0.024 µM
[2]; Homo sapiens, 22Rv1, 72 h
  IC50: 0.044 µM
[3]; Homo sapiens, T47D, 72 h
  IC50: 0.013 µM
[4]; Homo sapiens, DU-4475, 72 h
  IC50: 0.0064 µM
[5]; Homo sapiens, HT1197, 72 h
  IC50: 0.24 µM
[6]
  IC50: 0.0015 µM

## CC(=O)c1cnc2ccc(-c3cc(Cl)c(O)c(Cl)c3)nc2c1N[C@H]1CC[C@H](CCN(C)C)CC1 [Example 9, 1-[6-(3,5-Dichloro-4-hydroxyphenyl)-4-({trans-4-[2-(dimethylamino)ethyl]cyclohexyl}amino)-1,5-naphthyridin-3-yl]ethanone dihydrochloride]
[1]; Homo sapiens, A549, 72 h
  IC50: 0.013 µM
[2]; Homo sapiens, 22Rv1, 72 h
  IC50: 0.011 µM
[3]; Homo sapiens, T47D, 72 h
  IC50: 0.0066 µM
[4]; Homo sapiens, DU-4475, 72 h
  IC50: 0.0055 µM
[5]; Homo sapiens, HT1197, 72 h
  IC50: 0.27 µM
[6]
  IC50: 0.0007 µM

## CC(=O)c1cnc2ccc(-c3cc(F)c(O)c(Cl)c3)nc2c1N[C@H]1CC[C@H](CCN(C)C)CC1 [Example 10, 1-(6-(3-Chloro-5-fluoro-4-hydroxyphenyl)-4-{trans-4-[2-(dimethylamino)ethyl]-cyclohexylamino}-1,5-naphthyridin-3-yl)ethanone dihydrochloride]
[1]; Homo sapiens, A549, 72 h
  IC50: 0.012 µM
[2]; Homo sapiens, 22Rv1, 72 h
  IC50: 0.01 µM
[3]; Homo sapiens, T47D, 72 h
  IC50: 0.0039 µM
[4]; Homo sapiens, DU-4475, 72 h
  IC50: 0.0049 µM
[5]; Homo sapiens, HT1197, 72 h
  IC50: 0.2 µM
[6]
  IC50: 0.0014 µM

## CC(=O)c1cnc2ccc(-c3ccc(O)c(OC(F)(F)F)c3)nc2c1N[C@H]1CC[C@H](CN(C)C)CC1 [Example 11, 1-(4-{trans-4-[(Dimethylamino)methyl]cyclohexylamino}-6-[4-hydroxy-3-(trifluoromethoxy)-phenyl]-1,5-naphthyridin-3-yl)ethanone dihydrochloride]
[1]; Homo sapiens, A549, 72 h
  IC50: 0.042 µM
[2]; Homo sapiens, 22Rv1, 72 h
  IC50: 0.066 µM
[3]; Homo sapiens, T47D, 72 h
  IC50: 0.027 µM
[4]; Homo sapiens, DU-4475, 72 h
  IC50: 0.049 µM
[5]; Homo sapiens, HT1197, 72 h
  IC50: 0.14 µM
[6]
  IC50: 0.0027 µM

## [2H]C([2H])([2H])N(C[C@H]1CC[C@H](Nc2c(C(C)=O)cnc3ccc(-c4cc(Cl)c(O)c(Cl)c4)nc23)CC1)C([2H])([2H])[2H] [Example 28, 1-(6-(3,5-Dichloro-4-hydroxyphenyl)-4-(trans-4-((dimethylamino-d6)methyl)-cyclohexylamino)-1,5-naphthyridin-3-yl)ethanone dihydrochloride]
[1]; Homo sapiens, A549, 72 h
  IC50: 0.006 µM
[2]; Homo sapiens, 22Rv1, 72 h
  IC50: 0.0052 µM
[3]; Homo sapiens, T47D, 72 h
  IC50: 0.004 µM
[4]; Homo sapiens, DU-4475, 72 h
  IC50: 0.0022 µM
[5]; Homo sapiens, HT1197, 72 h
  IC50: 0.14 µM

## CC(=O)c1cnc2ccc(-c3cc(F)c(O)c(Cl)c3)nc2c1N[C@H]1CC[C@H](NC(=O)[C@@H]2CCCN2)CC1 [Example 76, (S)—N-{4-[3-Acetyl-6-(3-chloro-5-fluoro-4-hydroxyphenyl)-1,5-naphthyridin-trans-4-ylamino]-cyclohexyl}pyrrolidine-2-carboxamide dihydrochloride]
[1]; Homo sapiens, A549, 72 h
  IC50: 0.32 µM
[2]; Homo sapiens, 22Rv1, 72 h
  IC50: 0.073 µM
[3]; Homo sapiens, T47D, 72 h
  IC50: 0.03 µM
[4]; Homo sapiens, DU-4475, 72 h
  IC50: 0.019 µM
[5]; Homo sapiens, HT1197, 72 h
  IC50: 8.7 µM

## CC(=O)c1cnc2ccc(-c3cc(Cl)c(O)c(Cl)c3)nc2c1NC[C@H]1CC[C@H](N(C)C)CC1 [Example 89, dihydrochloride]
[1]; Homo sapiens, A549, 72 h
  IC50: 0.041 µM
[2]; Homo sapiens, 22Rv1, 72 h
  IC50: 0.028 µM
[3]; Homo sapiens, T47D, 72 h
  IC50: 0.023 µM
[4]; Homo sapiens, DU-4475, 72 h
  IC50: 0.0063 µM
[5]; Homo sapiens, HT1197, 72 h
  IC50: 0.9 µM

## CC(=O)c1cnc2ccc(-c3cc(Cl)c(O)c(Cl)c3)nc2c1N[C@H]1CC[C@@H](CN(C)C)CC1 [Example 94, 1-{6-(3,5-Dichloro-4-hydroxyphenyl)-4-({cis-4-[(dimethylamino)methyl]-cyclohexyl}amino)-1,5-naphthyridin-3-yl}ethanone dihydrochloride]
[1]; Homo sapiens, A549, 72 h
  IC50: 0.039 µM
[2]; Homo sapiens, 22Rv1, 72 h
  IC50: 0.028 µM
[3]; Homo sapiens, T47D, 72 h
  IC50: 0.02 µM
[4]; Homo sapiens, DU-4475, 72 h
  IC50: 0.0073 µM
[5]; Homo sapiens, HT1197, 72 h
  IC50: 0.25 µM

## CC(C)C(=O)c1cnc2ccc(-c3cc(Cl)c(O)c(Cl)c3)nc2c1N[C@H]1CC[C@H](CN(C)C)CC1 [Example 216, 1-[6-(3,5-dichloro-5-4-hydroxyphenyl)-4-({trans-4-[(dimethylamino)methyl]cyclohexyl}amino)-1,5-naphthyridin-3-yl]-2-methylpropan-1-one dihydrochloride]
[1]; Homo sapiens, A549, 72 h
  IC50: 0.012 µM
[5]; Homo sapiens, HT1197, 72 h
  IC50: 0.025 µM
[6]
  IC50: 0.0019 µM

## CC(C)C(=O)c1cnc2ccc(-c3cc(F)c(O)c(Cl)c3)nc2c1N[C@H]1CC[C@H](CN(C)C)CC1 [Example 217, dihydrochloride]
[1]; Homo sapiens, A549, 72 h
  IC50: 0.021 µM
[5]; Homo sapiens, HT1197, 72 h
  IC50: 0.055 µM
[6]
  IC50: 0.0018 µM
